What was measured:
Type in all cases: cell-based
S. mutans [1] = assay: Biofilm quantification by crystal violet (CV) stain, Abs at 562 nm; settings: 50 μM, FIGS. 3 & 4
Protocol: FIG. 3 Represents quantification of biofilms grown under different inoculants (50 μM) using crystal violet (CV) stain: (top) Biofilm morphology as visualized after CV stain, (chart) Colorimetrically quantified CV (Absat562 nm) to quantity the biofilm.
FIG. 4 represents quantification of biofilms grown under different inoculants (50 μM) using crystalviolet (CV) stain: (top) Biofilm morphology as visualized after CVstain, (chart) Colorimetrically quantified CV (Absat562 nm) to quantity the biofilm.
[…] G43 derivatives (G43, G43TEG, G43-TEG-MMA, G43-A2-OMe, G43-A-NH2, G43B-Furan, G43-B1-OMe, G43-C3-OMe, and G16) were synthesized de novo screened against S. mutans for biofilm inhibition. The compounds were dissolved in DMSO and serially diluted in H2O at 50 μM, then added to S. mutans cultures (TH medium with sucrose) & incubated for 96 h at 37° C. aerobically. Biofilms were assayed for bacterial viability (metabolic activity via a renilla-reporter S. mutans—Merritt2016). Biofilms were stained with crystal violet (CV), washed 3× with DI H2O, and then the CV was volumetrically extracted to colorimetrically determine the quantity of biofilm. Next, biofilms were washed 3× with DI H2O, then sterilized with EtOH, azeotropically dried. […] Results were analyzed with one-way ANOVA/Tukey's test (α=0.05).

GtfC mutants = assay: Crystal violet biofilm quantification in four strains of S. mutans (Gtf mutants); settings: FIG. 5
Protocol: FIG. 5 represents quantification of biofilms grown using four strains of S. mutans and colorimetrically quantified CV (Absat562 nm) to quantity the biofilm. Note that AGTF denotes which Gtf enzyme(s) are not expressed by the strain.
Eight G43 derivatives (G43, G43TEG, G43-TEG-MMA, G43-A2-OMe, G43-A-NH2, G43B-Furan, G43-B1-OMe, G43-C3-OMe, and G16) were synthesized de novo screened against S. mutans for biofilm inhibition. The compounds were dissolved in DMSO and serially diluted in H2O at 50 μM, then added to S. mutans cultures (TH medium with sucrose) & incubated for 96 h at 37° C. aerobically. Biofilms were assayed for bacterial viability (metabolic activity via a renilla-reporter S. mutans—Merritt2016). Biofilms were stained with crystal violet (CV), washed 3× with DI H2O, and then the CV was volumetrically extracted to colorimetrically determine the quantity of biofilm. Next, biofilms were washed 3× with DI H2O, then sterilized with EtOH, azeotropically dried. Insoluble biofilm was chemically digested by 1) methylation, 2) acid depolymerization, 3) reduction, and 4) acylation, resulting in methylated alditol acetates for polysaccharide connectivity determination by GC/MS. Results were analyzed with one-way ANOVA/Tukey's test (α=0.05).

S. mutans [2] = assay: Biofilm bacterial viability by metabolic activity, renilla luciferase reporter S. mutans; settings: at MIC, FIG. 1
Text: FIG. 2 represents S. mutans bacterial viability as measured using a metabolic activity via arenilla-reporter S. mutans(Merritt2016).
Methods: G43, and its non-binding counterpart, G43TEG (N-(2-carbamoyl-4-(2-(2-(2-(2-hydroxyethoxy)ethoxy)ethoxy)ethoxy)phenyl)-5-nitrobenzo[b]thiophene-2-carboxamide), were synthesized and minimum inhibitory concentration (MIC) against S. mutans was established. The compounds were serially diluted in DMSO to 400, 200, 100, 50, 25 and 12.5 then added to S. mutans grown in TH medium plus sucrose. Cultures were incubated for 96 h at 37° C. aerobically. Supernatants with planktonic cells and biofilms were assayed separately for metabolic activity using S. mutans carrying a renilla luciferase reporter. […] Polymerization kinetics were assessed for 5 min by near-IR in discs (4 mm by 10 mm diameter), cured with a LED light source (700 mW/cm2, 30 s). […] Results were analyzed with one-way ANOVA/Tukey's test (α=0.05). […]
Eight G43 derivatives (G43, G43TEG, G43-TEG-MMA, G43-A2-OMe, G43-A-NH2, G43B-Furan, G43-B1-OMe, G43-C3-OMe, and G16) were synthesized de novo screened against S. mutans for biofilm inhibition. […] Biofilms were stained with crystal violet (CV), washed 3× with DI H2O, and then the CV was volumetrically extracted to colorimetrically determine the quantity of biofilm. […] Results were analyzed with one-way ANOVA/Tukey's test (α=0.05).

S. mutans [3] = assay: Minimum inhibitory concentration (MIC) against S. mutans, serial dilution, TH medium plus sucrose, 96 h; settings: Streptococcus mutans, S. mutans in TH medium plus sucrose, 37° C. aerobically
Protocol: Methods: G43, and its non-binding counterpart, G43TEG (N-(2-carbamoyl-4-(2-(2-(2-(2-hydroxyethoxy)ethoxy)ethoxy)ethoxy)phenyl)-5-nitrobenzo[b]thiophene-2-carboxamide), were synthesized and minimum inhibitory concentration (MIC) against S. mutans was established. The compounds were serially diluted in DMSO to 400, 200, 100, 50, 25 and 12.5 then added to S. mutans grown in TH medium plus sucrose. Cultures were incubated for 96 h at 37° C. aerobically. Supernatants with planktonic cells and biofilms were assayed separately for metabolic activity using S. mutans carrying a renilla luciferase reporter. G43 or G43TEG were added at 4 wt % into 50:50 BisGMA/TEGDMA and 70 wt % filler. 0.2 wt % BAPO, 0.05 wt % BHT were used as the photoinitiator and inhibitor, respectively. Polymerization kinetics were assessed for 5 min by near-IR in discs (4 mm by 10 mm diameter), cured with a LED light source (700 mW/cm2, 30 s). Discs were then immersed in deionized H2O for 7 days, with extracted monomers collected every 24 h. Results were analyzed with one-way ANOVA/Tukey's test (α=0.05). […] Polymerizations of dental resins were relatively unaffected by 4% G43 or G43TEG (FIG. 1).

Row | SMILES | biofilm production (S. mutans [1]) | biofilm reduction in GtfC mutants (GtfC mutants) | reduction of viable biofilm cells (S. mutans [2]) | MIC (S. mutans [3]) [µM]
1 | NC(=O)c1ccccc1NC(=O)c1cc2cc([N+](=O)[O-])ccc2s1 [G43, N-(2-carbamoylphenyl)-5-nitrobenzo[b]thiophene-2-carboxamide] | significantly reduced | biofilm reduction efficacy | significant reduction | 25 to 50
2 | NC(=O)c1cc(OCCOCCOCCOCCO)ccc1NC(=O)c1cc2cc([N+](=O)[O-])ccc2s1 [G43TEG, N-(2-carbamoyl-4-(2-(2-(2-(2-hydroxyethoxy)ethoxy)ethoxy)ethoxy)phenyl)-5-nitrobenzo[b]thiophene-2-carboxamide] | significantly reduced | biofilm reduction efficacy | significant reduction | 25 to 50

Source: patent US20210284622A1, “BIOACTIVE POLYMERS WITH ANTI=FOULING PROPERTIES FOR MEDICAL AND DENTAL USES” (OREGON HEALTH & SCIENCE UNIVERSITY, priority 2020, published 2021)
